The source made the active and inactive calls. No cut-off for these calls is given here.
Legend:
HT-29 [1] = experiment: Antiproliferative activity against human HT-29 cells assessed as reduction in cell viability incubated for 72 hrs in presence of AZD1390 by MTT assay; format: functional, cell-based; conditions: HT-29, 72 h
HT-29 [2] = experiment: Induction of apoptosis in human HT-29 cells assessed as early apoptotic cells at 1 uM measured after 48 hrs in presence of AZD1390 by Annexin V-FITC/Propidium iodide staining based flow cytometry analysis (reference value: 3.81%); format: functional
HT-29 [3] = experiment: Induction of apoptosis in human HT-29 cells assessed as necrotic cells at 3 uM measured after 48 hrs by Annexin V-FITC/Propidium iodide staining based flow cytometry analysis (reference value: 0.73%); format: functional
LoVo [4] = experiment: Antiproliferative activity against ATM-deficient human LoVo cells assessed as reduction in cell viability incubated for 72 hrs by MTT assay; format: functional, cell-based; conditions: dose 0.001-100 µM, DDE = dose-dependent effect
A549 = experiment: Antiproliferative activity against ATM proficient human A549 cells assessed as reduction in cell viability incubated for 72 hrs by MTT assay; format: functional, cell-based; conditions: dose 0.001-100 µM, DDE = dose-dependent effect
LoVo [5] = experiment: Induction of apoptosis in human LoVo cells deficient in ATM assessed as early apoptotic cells at 3 uM measured after 24 hrs by Annexin V-FITC/Propidium iodide staining based flow cytometry analysis (reference value: 4.20%); format: functional
[6] = Oral bioavailability in Sprague-Dawley rat at 10 mg/kg measured at 0.083 to 24 hrs by LC-MS/MS method; format: ADME, organism-based; conditions: in vivo, time 0.083-24 hrs
HT-29 [7] = experiment: Induction of apoptosis in human HT-29 cells assessed as late apoptotic cells at 3 uM measured after 48 hrs by Annexin V-FITC/Propidium iodide staining based flow cytometry analysis (reference value: 0.71%); format: functional
[8] = Cmax in Sprague-Dawley rat at 5 mg/kg, iv measured at 0.083 to 24 hrs by LC-MS/MS method; format: ADME, organism-based; design: dose 5 mg/kg, time 0.083-24 hrs, route iv; conditions: in vivo
HT-29 [9] = experiment: Induction of apoptosis in human HT-29 cells assessed as viable cells at 3 uM measured after 48 hrs by Annexin V-FITC/Propidium iodide staining based flow cytometry analysis (reference value: 97.01%); format: functional; conditions: read-out: Activity
[10] = Tmax in Sprague-Dawley rat at 10 mg/kg, po measured at 0.083 to 24 hrs by LC-MS/MS method; format: ADME, organism-based; conditions: in vivo, time 0.083-24 hrs
[11] = molecular target: Serine/threonine-protein kinase ATR (Homo sapiens, UniProt Q13535); experiment: Inhibition of human recombinant full length ATR using GST-cMyc-p53 as substrate incubated for 40 mins in presence of ATP by HTRF assay
LoVo [12] = experiment: Induction of apoptosis in human LoVo cells deficient in ATM assessed as necrotic cells at 1 uM measured after 24 hrs by Annexin V-FITC/Propidium iodide staining based flow cytometry analysis (reference value: 0.84%); format: functional
[13] = AUC (0 to infinity) in Sprague-Dawley rat at 5 mg/kg, iv measured at 0.083 to 24 hrs by LC-MS/MS method; format: ADME, organism-based; design: dose 5 mg/kg, time upper 24 hrs, time lower 0.083 hrs, route iv; conditions: in vivo
LoVo [14] = experiment: Induction of apoptosis in human LoVo cells deficient in ATM assessed as early apoptotic cells at 0.3 uM measured after 24 hrs by Annexin V-FITC/Propidium iodide staining based flow cytometric analysis (reference value: 4.20%); format: functional
HT-29 [15] = experiment: Induction of apoptosis in human HT-29 cells assessed as late apoptotic cells at 1 uM measured after 48 hrs in presence of AZD1390 by Annexin V-FITC/Propidium iodide staining based flow cytometry analysis (reference value: 0.63%); format: functional
[16] = Cmax in Sprague-Dawley rat at 10 mg/kg, po measured at 0.083 to 24 hrs by LC-MS/MS method; format: ADME, organism-based; design: time 0.083-24 hrs, dose 10 mg/kg, route po; conditions: in vivo
LoVo [17] = experiment: Antimigratory activity in human LoVo cells assessed as suppression of cell migration measured at up to 1 uM by wound healing assay; format: functional, cell-based; conditions: time <= 48.0 hrs, TDE = time-dependent effect
LoVo [18] = experiment: Induction of apoptosis in human LoVo cells deficient in ATM assessed as viable cells at 1 uM measured after 24 hrs by Annexin V-FITC/Propidium iodide staining based flow cytometry analysis (reference value: 91.64%); format: functional; conditions: read-out: Activity
HT-29 [19] = experiment: Induction of apoptosis in human HT-29 cells assessed as late apoptotic cells at 0.3 uM measured after 48 hrs in presence of AZD1390 by Annexin V-FITC/Propidium iodide staining based flow cytometry analysis (reference value: 0.63%); format: functional
[20] = Toxicity in NOD/SCID mouse xenografted with human LoVo cells assessed as damage in lung at 50 to 100 mg/kg, po administered bid for 30 days measured after 2 hrs post last dose by H and E staining method; format: organism-based; conditions: in vivo, 720 h, dose 50-100 mg/kg, time 30 day
[21] = Toxicity in NOD/SCID mouse xenografted with human LoVo cells assessed as damage in liver at 50 to 100 mg/kg, po administered bid for 30 days measured after 2 hrs post last dose by H and E staining method; format: organism-based; conditions: in vivo, 720 h, dose 50-100 mg/kg, time 30 day
[22] = Volume of distribution at steady state in Sprague-Dawley rat at 5 mg/kg, iv measured at 0.083 to 24 hrs by LC-MS/MS method; format: ADME, organism-based; conditions: in vivo, time 0.083-24 hrs, read-out: Vdss
HT-29 [23] = experiment: Induction of apoptosis in human HT-29 cells assessed as viable cells at 1 uM measured after 48 hrs in presence of AZD1390 by Annexin V-FITC/Propidium iodide staining based flow cytometry analysis (reference value: 95.33%); format: functional; conditions: read-out: Activity
[24] = Toxicity in NOD/SCID mouse xenografted with human LoVo cells assessed as body weight loss at 50 to 100 mg/kg, po administered bid for 30 days; format: organism-based; conditions: in vivo, 720 h, dose 50-100 mg/kg, time 30 day
[25] = Toxicity in NOD/SCID mouse xenografted with human LoVo cells assessed as damage in kidney at 50 to 100 mg/kg, po administered bid for 30 days measured after 2 hrs post last dose by H and E staining method; format: organism-based; conditions: in vivo, 720 h, dose 50-100 mg/kg, time 30 day
LoVo [26] = experiment: Induction of apoptosis in human LoVo cells deficient in ATM assessed as late apoptotic cells at 3 uM measured after 24 hrs by Annexin V-FITC/Propidium iodide staining based flow cytometry analysis (reference value: 3.32%); format: functional
SW-620 = experiment: Antiproliferative activity against ATM-deficient human SW-620 cells assessed as reduction in cell viability incubated for 72 hrs by MTT assay; format: functional, cell-based; conditions: dose 0.001-100 µM, DDE = dose-dependent effect
HT-29 [27] = experiment: Induction of apoptosis in human HT-29 cells assessed as late apoptotic cells at 3 uM measured after 48 hrs in presence of AZD1390 by Annexin V-FITC/Propidium iodide staining based flow cytometry analysis (reference value: 0.63%); format: functional
HT-29 [28] = experiment: Induction of apoptosis in human HT-29 cells assessed as necrotic cells at 0.3 uM measured after 48 hrs in presence of AZD1390 by Annexin V-FITC/Propidium iodide staining based flow cytometry analysis (reference value: 0.23%); format: functional
[29] = molecular target: Serine-protein kinase ATM (Homo sapiens) (UniProt Q13315); experiment: Activation of ATM signaling in human HT-29 cells proficient in ATM at 1 uM measured after 3 days by immunofluorescence assay; format: cell-based; conditions: filed as activator, time 3.0 day
LoVo [30] = experiment: Inhibition of colony formation in human LoVo cells assessed as inhibition of cell proliferation incubated for 24 hrs followed by culture medium replenishment with drug-free medium for every 72 hrs and measured after 14 days by crystal violet staining method; format: functional, cell-based; conditions: dose 0.03-3 µM, DDE = dose-dependent effect

Sequence of Serine-protein kinase ATM (Homo sapiens) (Q13315 whole entry): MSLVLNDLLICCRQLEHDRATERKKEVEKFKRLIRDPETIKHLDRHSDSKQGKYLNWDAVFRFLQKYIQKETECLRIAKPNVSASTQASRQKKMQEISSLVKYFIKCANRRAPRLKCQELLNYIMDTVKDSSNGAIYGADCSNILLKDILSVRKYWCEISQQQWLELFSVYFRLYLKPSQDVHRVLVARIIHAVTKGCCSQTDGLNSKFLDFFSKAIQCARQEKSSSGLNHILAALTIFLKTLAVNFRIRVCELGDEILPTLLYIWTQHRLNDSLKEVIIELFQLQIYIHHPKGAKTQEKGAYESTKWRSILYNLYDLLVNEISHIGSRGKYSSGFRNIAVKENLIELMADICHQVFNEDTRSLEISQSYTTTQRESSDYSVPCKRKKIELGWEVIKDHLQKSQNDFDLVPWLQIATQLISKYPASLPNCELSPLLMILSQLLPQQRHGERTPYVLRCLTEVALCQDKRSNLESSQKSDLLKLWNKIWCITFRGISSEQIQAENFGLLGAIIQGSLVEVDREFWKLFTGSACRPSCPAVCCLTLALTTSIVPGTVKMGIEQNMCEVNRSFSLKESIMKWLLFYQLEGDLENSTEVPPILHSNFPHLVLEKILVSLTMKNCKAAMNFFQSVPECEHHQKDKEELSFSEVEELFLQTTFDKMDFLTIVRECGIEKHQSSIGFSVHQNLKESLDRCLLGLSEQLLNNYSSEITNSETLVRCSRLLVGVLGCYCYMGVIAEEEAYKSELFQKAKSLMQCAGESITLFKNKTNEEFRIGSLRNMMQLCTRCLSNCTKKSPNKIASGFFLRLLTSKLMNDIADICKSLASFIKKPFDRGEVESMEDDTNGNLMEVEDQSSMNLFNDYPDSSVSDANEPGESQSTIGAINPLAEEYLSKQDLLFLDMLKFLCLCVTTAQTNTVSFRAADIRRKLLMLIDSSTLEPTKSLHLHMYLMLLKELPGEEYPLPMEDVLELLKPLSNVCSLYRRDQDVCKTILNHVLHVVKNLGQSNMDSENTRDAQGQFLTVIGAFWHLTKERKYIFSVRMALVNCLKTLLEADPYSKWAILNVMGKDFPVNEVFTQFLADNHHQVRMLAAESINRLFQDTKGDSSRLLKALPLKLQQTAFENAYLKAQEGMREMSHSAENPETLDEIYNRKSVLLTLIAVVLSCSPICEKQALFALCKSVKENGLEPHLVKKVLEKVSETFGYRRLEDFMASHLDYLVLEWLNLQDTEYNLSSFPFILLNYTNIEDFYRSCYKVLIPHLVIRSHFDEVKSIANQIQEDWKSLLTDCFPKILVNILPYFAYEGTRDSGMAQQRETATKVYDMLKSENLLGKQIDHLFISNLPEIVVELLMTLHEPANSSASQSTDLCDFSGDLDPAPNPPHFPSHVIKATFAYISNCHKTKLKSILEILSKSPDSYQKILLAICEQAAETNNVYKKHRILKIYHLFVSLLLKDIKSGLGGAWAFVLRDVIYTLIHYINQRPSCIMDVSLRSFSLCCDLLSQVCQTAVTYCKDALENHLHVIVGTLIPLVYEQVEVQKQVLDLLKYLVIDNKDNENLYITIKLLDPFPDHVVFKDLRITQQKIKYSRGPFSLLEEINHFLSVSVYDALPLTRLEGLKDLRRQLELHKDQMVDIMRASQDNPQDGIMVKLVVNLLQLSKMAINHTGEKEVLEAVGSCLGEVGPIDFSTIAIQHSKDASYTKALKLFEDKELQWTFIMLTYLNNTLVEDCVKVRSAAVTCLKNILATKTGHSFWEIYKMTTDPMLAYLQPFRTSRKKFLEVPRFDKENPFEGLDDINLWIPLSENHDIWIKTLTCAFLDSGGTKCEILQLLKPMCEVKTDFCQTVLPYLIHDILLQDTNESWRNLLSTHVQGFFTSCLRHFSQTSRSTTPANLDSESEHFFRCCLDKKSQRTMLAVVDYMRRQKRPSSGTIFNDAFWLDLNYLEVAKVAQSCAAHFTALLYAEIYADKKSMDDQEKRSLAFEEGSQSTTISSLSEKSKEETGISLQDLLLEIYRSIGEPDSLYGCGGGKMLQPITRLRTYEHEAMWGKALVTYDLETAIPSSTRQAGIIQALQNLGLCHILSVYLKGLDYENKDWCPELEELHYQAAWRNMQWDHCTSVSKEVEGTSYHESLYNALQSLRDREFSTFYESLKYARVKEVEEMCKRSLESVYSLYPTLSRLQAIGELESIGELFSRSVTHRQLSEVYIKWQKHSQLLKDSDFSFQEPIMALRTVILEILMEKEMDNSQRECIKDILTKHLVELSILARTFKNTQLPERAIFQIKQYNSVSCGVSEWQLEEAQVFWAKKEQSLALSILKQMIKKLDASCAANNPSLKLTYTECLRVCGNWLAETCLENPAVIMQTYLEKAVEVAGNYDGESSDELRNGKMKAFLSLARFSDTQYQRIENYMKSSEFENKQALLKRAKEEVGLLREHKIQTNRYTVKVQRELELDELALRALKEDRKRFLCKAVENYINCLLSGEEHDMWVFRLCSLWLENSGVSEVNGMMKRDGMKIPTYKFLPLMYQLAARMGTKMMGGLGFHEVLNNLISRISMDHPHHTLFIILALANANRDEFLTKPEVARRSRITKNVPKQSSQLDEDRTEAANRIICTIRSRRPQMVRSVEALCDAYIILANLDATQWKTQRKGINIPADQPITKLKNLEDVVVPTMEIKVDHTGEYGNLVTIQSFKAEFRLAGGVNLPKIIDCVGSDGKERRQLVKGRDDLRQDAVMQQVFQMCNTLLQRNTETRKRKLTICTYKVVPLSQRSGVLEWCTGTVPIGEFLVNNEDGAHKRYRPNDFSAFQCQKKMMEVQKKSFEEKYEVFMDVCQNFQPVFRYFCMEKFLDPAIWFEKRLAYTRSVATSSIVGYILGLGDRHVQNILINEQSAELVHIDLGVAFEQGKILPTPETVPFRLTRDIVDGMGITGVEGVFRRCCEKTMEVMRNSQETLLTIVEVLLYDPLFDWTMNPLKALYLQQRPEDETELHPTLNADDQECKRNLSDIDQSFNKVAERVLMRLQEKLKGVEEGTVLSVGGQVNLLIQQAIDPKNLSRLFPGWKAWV

IC50 (HT-29 [1]): 439 nM
bioavailability [6]: 43.1%
Cmax [8]: 3400 ng/mL
Tmax [10]: 1.67 h
IC50 [11]: 13 nM
AUC(0-inf) [13]: 3150 ng·h/mL
Cmax [16]: 895 ng/mL
Vd [22]: 2.03 L/kg
Activity [29]: Active
SMILES: C[C@@H]1COCCN1c1nc(-c2cccc3[nH]ccc23)nc2ccc(-c3ccnn3C)cc12
Activity (HT-29 [2]): 7.45%
Activity (HT-29 [3]): 1.71%
Activity (LoVo [4]): Dde
Activity (A549): Dde
Activity (LoVo [5]): 27.07%
Activity (HT-29 [7]): 2.52%
viability at 3 µM (HT-29 [9]): 93.1%
Activity (LoVo [12]): 2.39%
Activity (LoVo [14]): 24.04%
Activity (HT-29 [15]): 9.54%
Activity (LoVo [17]): Tde
viability at 1 µM (LoVo [18]): 47.8%
Activity (HT-29 [19]): 9.85%
Activity [20]: Non-Toxic
Activity [21]: Non-Toxic
viability at 1 µM (HT-29 [23]): 80.9%
Activity [24]: Non-Toxic
Activity [25]: Non-Toxic
Activity (LoVo [26]): 28.73%
Activity (SW-620): Dde
Activity (HT-29 [27]): 20.78%
Activity (HT-29 [28]): 3.91%
inhibition (LoVo [30]): Dde

— ChEMBL document CHEMBL5154749 (Eur J Med Chem, 2022)
